Reference: ChEMBL document CHEMBL4507283, “Data for DCP probe BI-1935” (2021)

Tests used:
[1] = biological target: Serine/threonine-protein kinase BRSK2 (Homo sapiens) (UniProt Q8IWQ3); details: Compound concentration 1000.0 nM
[2] = biological target: MAP/microtubule affinity-regulating kinase 4 (Homo sapiens) (UniProt Q96L34); details: Compound concentration 1000.0 nM
[3] = biological target: D(1A) dopamine receptor (Homo sapiens) (UniProt P21728); test: D1/HU Eurofins-Panlabs selectivity data (BI); details: Compound concentration 10.0 uM
[4] = biological target: Alpha-2A adrenergic receptor (Homo sapiens) (UniProt P08913); details: Compound concentration 10.0 uM
[5] = biological target: TRAF2 and NCK-interacting protein kinase (Homo sapiens) (UniProt Q9UKE5); details: Compound concentration 1000.0 nM
[6] = biological target: Ribosomal protein S6 kinase alpha-4 (Homo sapiens) (UniProt O75676); details: Compound concentration 1000.0 nM
[7] = biological target: Proto-oncogene tyrosine-protein kinase ROS (Homo sapiens) (UniProt P08922); details: Compound concentration 1000.0 nM
[8] = biological target: Inhibitor of nuclear factor kappa-B kinase subunit alpha (Homo sapiens) (UniProt O15111); details: Compound concentration 1000.0 nM
[9] = biological target: Histamine H4 receptor (Homo sapiens) (UniProt Q9H3N8); details: Compound concentration 10.0 uM
[10] = biological target: Myosin light chain kinase (Homo sapiens) (UniProt Q32MK0); details: Compound concentration 1000.0 nM
[11] = biological target: Proto-oncogene tyrosine-protein kinase Src (Homo sapiens) (UniProt P12931); details: Compound concentration 1000.0 nM
[12] = biological target: Phosphatidylinositol 4,5-bisphosphate 3-kinase catalytic subunit alpha isoform (Homo sapiens) (UniProt P42336); details: Compound concentration 1000.0 nM
[13] = biological target: Platelet-derived growth factor receptor beta (Homo sapiens) (UniProt P09619); details: Compound concentration 1000.0 nM
[14] = biological target: Voltage-dependent L-type calcium channel subunit alpha-1C (DHP site) (Rattus norvegicus, UniProt P22002); test: CA+/DHPSI/RA Eurofins-Panlabs selectivity data (BI); details: compound concentration 10 uM, read-out: % Ctrl
[15] = biological target: Dual specificity tyrosine-phosphorylation-regulated kinase 1A (Homo sapiens) (UniProt Q13627); details: Compound concentration 1000.0 nM
[16] = biological target: Urotensin-2 receptor (Homo sapiens) (UniProt Q9UKP6); test: UROTENSIN_II Eurofins-Panlabs selectivity data (BI); details: Compound concentration 10.0 uM
[17] = biological target: Serine/threonine-protein kinase LATS1 (Homo sapiens) (UniProt O95835); details: Compound concentration 1000.0 nM
[18] = tested on: Proto-oncogene tyrosine-protein kinase receptor Ret (Homo sapiens), P07949 [V804L]; details: Compound concentration 1000.0 nM
[19] = tested on: Phosphatidylinositol 4,5-bisphosphate 3-kinase catalytic subunit alpha isoform (Homo sapiens), P42336 [E545A]; details: Compound concentration 1000.0 nM
[20] = biological target: Mitogen-activated protein kinase kinase kinase 6 (Homo sapiens) (UniProt O95382); details: Compound concentration 1000.0 nM
[21] = biological target: Cyclin-dependent kinase-like 2 (Homo sapiens) (UniProt Q92772); details: Compound concentration 1000.0 nM
[22] = biological target: Kappa-type opioid receptor (Homo sapiens) (UniProt P41145); details: Compound concentration 10.0 uM
[23] = biological target: Serine/threonine-protein kinase Nek6 (Homo sapiens) (UniProt Q9HC98); details: Compound concentration 1000.0 nM
[24] = biological target: Calcitonin-gene-related peptide receptor, CALCRL/RAMP1 (Homo sapiens) (UniProt O60894+Q16602); test: CGRP/HU Eurofins-Panlabs selectivity data (BI); assay type: protein-complex assay; details: Compound concentration 10.0 uM
[25] = biological target: Ephrin type-A receptor 1 (Homo sapiens) (UniProt P21709); details: Compound concentration 1000.0 nM
[26] = biological target: RAC-alpha serine/threonine-protein kinase (Homo sapiens) (UniProt P31749); details: Compound concentration 1000.0 nM
[27] = biological target: Ribosomal protein S6 kinase alpha-1 (Homo sapiens) (UniProt Q15418); details: Compound concentration 1000.0 nM
[28] = biological target: High affinity nerve growth factor receptor (Homo sapiens) (UniProt P04629); details: Compound concentration 1000.0 nM
[29] = biological target: Mitogen-activated protein kinase kinase kinase kinase 2 (Homo sapiens) (UniProt Q12851); details: Compound concentration 1000.0 nM
[30] = biological target: Phospholipase A2 (Sus scrofa) (UniProt A0A8D1VEY7); test: PLA2 Eurofins-Panlabs selectivity data (BI); details: Compound concentration 10.0 uM
[31] = biological target: Tyrosine-protein kinase Yes (Homo sapiens) (UniProt P07947); details: Compound concentration 1000.0 nM
[32] = biological target: Neprilysin (Homo sapiens) (UniProt P08473); test: NEUTRALENDOP Eurofins-Panlabs selectivity data (BI); details: Compound concentration 10.0 uM
[33] = biological target: Serine/threonine-protein kinase SIK2 (Homo sapiens) (UniProt Q9H0K1); details: Compound concentration 1000.0 nM
[34] = biological target: Serine/threonine-protein kinase Sgk1 (Homo sapiens) (UniProt O00141); details: Compound concentration 1000.0 nM
[35] = tested on: Tyrosine-protein kinase ABL1 (Homo sapiens), P00519 [F317I]; details: Compound concentration 1000.0 nM
[36] = biological target: Homeodomain-interacting protein kinase 1 (Homo sapiens) (UniProt Q86Z02); details: Compound concentration 1000.0 nM
[37] = biological target: NUAK family SNF1-like kinase 2 (Homo sapiens) (UniProt Q9H093); details: Compound concentration 1000.0 nM
[38] = biological target: Ephrin type-A receptor 8 (Homo sapiens) (UniProt P29322); details: Compound concentration 1000.0 nM
[39] = biological target: 5-hydroxytryptamine receptor 2A (Homo sapiens) (UniProt P28223); details: Compound concentration 10.0 uM
[40] = biological target: Inhibitor of nuclear factor kappa-B kinase subunit beta (Homo sapiens) (UniProt O14920); details: Compound concentration 1000.0 nM
[41] = biological target: Phosphatidylinositol 4-phosphate 5-kinase type-1 gamma (Homo sapiens) (UniProt O60331); details: Compound concentration 1000.0 nM
[42] = biological target: Mitogen-activated protein kinase kinase kinase 4 (Homo sapiens) (UniProt Q9Y6R4); details: Compound concentration 1000.0 nM
[43] = biological target: MAP kinase-activated protein kinase 5 (Homo sapiens) (UniProt Q8IW41); details: Compound concentration 1000.0 nM
[44] = biological target: cAMP-dependent protein kinase catalytic subunit alpha (Homo sapiens) (UniProt P17612); details: Compound concentration 1000.0 nM

Sequence of Cyclin-dependent kinase-like 2 (Homo sapiens) (Q92772 whole entry): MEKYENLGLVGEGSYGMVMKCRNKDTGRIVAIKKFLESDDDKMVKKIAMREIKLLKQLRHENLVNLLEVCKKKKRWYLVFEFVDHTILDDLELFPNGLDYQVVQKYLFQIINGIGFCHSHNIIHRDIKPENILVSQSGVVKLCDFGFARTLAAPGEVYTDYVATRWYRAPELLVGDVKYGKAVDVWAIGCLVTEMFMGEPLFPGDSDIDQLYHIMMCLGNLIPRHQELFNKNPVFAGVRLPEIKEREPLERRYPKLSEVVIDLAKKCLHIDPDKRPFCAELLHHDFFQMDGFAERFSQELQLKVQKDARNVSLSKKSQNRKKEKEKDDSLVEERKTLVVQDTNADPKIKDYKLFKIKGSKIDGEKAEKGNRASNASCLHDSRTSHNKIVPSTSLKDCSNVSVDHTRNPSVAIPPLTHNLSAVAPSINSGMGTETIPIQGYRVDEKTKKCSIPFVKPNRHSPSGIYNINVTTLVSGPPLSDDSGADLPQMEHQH
Sequence of Myosin light chain kinase (Homo sapiens) (Q32MK0 whole entry): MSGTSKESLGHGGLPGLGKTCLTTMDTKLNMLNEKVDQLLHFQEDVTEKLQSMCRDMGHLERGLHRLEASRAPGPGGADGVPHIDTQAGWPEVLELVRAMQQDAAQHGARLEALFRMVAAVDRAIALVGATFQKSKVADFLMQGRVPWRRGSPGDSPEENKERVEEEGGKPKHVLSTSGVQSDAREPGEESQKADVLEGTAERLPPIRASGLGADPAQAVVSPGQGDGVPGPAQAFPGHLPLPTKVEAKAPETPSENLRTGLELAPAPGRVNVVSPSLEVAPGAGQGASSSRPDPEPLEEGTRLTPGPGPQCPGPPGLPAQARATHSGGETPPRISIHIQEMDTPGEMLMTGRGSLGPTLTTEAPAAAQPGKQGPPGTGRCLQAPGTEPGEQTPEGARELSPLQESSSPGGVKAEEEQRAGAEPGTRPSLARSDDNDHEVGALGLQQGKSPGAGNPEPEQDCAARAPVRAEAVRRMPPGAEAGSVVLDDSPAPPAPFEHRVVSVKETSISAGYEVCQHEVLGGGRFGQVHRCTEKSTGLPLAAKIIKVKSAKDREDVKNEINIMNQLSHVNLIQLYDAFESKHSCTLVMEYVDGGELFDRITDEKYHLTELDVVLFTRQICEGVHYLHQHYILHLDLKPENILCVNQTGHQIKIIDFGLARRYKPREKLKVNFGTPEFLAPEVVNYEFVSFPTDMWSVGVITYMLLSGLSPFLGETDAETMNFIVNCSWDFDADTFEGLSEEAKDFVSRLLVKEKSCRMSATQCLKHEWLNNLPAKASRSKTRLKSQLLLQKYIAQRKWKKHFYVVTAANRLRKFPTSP
Sequence of Phosphatidylinositol 4,5-bisphosphate 3-kinase catalytic subunit alpha isoform (Homo sapiens), P42336 [E545A] (P42336 whole entry E545A, canonical isoform): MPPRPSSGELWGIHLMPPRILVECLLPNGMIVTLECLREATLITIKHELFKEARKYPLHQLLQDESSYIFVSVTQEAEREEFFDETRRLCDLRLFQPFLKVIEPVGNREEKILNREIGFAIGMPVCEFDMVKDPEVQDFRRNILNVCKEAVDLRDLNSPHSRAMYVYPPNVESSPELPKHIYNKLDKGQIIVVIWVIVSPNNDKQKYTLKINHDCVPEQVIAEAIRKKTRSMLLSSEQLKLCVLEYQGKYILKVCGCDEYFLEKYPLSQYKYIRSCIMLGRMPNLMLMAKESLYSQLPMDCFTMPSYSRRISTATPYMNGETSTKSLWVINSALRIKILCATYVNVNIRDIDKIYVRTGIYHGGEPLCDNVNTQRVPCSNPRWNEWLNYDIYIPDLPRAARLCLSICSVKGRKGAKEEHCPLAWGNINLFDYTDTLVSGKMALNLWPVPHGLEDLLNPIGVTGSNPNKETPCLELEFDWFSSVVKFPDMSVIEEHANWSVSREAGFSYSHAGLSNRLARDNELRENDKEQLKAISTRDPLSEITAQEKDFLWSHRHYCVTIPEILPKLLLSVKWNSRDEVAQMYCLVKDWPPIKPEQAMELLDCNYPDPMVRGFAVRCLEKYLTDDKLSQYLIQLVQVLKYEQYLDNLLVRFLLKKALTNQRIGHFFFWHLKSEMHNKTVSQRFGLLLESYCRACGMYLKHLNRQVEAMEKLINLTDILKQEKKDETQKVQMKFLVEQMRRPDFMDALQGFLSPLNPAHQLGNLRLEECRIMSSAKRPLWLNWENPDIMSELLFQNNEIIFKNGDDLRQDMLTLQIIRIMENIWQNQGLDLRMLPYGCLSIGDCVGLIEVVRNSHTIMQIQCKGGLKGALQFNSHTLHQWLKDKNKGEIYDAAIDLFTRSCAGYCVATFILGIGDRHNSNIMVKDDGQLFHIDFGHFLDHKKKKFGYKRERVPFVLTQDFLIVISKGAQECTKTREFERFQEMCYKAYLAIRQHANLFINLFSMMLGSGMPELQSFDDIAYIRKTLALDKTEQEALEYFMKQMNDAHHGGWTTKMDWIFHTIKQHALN
Sequence of Ribosomal protein S6 kinase alpha-1 (Homo sapiens) (Q15418 whole entry): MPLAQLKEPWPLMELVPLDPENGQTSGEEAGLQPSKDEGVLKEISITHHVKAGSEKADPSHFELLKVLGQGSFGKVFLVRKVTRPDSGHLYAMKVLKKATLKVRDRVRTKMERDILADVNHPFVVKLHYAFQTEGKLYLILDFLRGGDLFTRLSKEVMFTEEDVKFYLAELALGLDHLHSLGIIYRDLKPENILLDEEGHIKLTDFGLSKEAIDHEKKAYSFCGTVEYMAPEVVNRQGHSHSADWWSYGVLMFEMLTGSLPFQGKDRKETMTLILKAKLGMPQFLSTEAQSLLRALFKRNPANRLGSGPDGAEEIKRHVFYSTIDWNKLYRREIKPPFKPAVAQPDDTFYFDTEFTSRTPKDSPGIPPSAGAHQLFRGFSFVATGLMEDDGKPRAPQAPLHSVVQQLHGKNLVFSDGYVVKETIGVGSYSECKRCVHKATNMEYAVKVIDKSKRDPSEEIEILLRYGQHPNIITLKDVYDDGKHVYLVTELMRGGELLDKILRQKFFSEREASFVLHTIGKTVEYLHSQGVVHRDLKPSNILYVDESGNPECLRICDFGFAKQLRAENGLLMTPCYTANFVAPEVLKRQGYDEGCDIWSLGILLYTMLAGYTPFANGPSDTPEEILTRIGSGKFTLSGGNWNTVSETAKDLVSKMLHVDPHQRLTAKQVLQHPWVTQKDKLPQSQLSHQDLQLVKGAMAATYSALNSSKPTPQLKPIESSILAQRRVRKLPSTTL
Sequence of TRAF2 and NCK-interacting protein kinase (Homo sapiens) (Q9UKE5 whole entry, looked up): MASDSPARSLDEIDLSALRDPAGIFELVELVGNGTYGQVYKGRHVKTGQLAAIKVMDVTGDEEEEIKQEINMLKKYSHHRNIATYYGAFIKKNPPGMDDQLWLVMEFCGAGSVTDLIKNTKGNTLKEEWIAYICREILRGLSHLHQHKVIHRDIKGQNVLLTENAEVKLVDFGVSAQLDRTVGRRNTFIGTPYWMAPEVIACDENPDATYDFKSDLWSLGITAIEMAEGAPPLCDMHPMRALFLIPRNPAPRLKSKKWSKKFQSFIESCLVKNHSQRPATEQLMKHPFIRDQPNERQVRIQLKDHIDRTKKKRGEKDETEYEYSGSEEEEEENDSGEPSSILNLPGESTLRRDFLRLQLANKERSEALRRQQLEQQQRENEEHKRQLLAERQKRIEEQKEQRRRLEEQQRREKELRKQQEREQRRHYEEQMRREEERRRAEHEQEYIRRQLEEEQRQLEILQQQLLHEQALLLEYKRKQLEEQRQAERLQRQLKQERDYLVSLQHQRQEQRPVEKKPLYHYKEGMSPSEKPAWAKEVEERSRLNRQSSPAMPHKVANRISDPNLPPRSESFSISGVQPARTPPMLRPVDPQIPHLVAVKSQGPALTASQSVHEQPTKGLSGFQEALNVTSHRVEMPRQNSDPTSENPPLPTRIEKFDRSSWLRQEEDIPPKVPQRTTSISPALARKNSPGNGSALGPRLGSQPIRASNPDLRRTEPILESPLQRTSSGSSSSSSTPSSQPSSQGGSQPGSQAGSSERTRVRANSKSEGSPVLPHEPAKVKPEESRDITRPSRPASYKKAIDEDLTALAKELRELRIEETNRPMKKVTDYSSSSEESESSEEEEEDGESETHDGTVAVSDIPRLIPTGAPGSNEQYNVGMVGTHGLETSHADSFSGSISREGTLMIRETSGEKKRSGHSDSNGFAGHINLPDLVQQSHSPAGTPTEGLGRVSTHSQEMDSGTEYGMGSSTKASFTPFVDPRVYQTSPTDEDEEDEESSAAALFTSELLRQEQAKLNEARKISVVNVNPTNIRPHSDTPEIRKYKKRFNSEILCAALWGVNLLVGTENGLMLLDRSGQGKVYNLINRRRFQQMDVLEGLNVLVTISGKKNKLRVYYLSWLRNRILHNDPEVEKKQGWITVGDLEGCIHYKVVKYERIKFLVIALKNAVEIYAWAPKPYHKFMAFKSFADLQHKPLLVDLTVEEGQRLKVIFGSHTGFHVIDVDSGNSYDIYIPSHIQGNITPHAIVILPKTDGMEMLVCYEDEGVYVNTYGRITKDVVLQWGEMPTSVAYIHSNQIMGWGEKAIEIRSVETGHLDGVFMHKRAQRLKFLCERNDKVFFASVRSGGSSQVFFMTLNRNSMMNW
Sequence of Alpha-2A adrenergic receptor (Homo sapiens) (P08913 whole entry): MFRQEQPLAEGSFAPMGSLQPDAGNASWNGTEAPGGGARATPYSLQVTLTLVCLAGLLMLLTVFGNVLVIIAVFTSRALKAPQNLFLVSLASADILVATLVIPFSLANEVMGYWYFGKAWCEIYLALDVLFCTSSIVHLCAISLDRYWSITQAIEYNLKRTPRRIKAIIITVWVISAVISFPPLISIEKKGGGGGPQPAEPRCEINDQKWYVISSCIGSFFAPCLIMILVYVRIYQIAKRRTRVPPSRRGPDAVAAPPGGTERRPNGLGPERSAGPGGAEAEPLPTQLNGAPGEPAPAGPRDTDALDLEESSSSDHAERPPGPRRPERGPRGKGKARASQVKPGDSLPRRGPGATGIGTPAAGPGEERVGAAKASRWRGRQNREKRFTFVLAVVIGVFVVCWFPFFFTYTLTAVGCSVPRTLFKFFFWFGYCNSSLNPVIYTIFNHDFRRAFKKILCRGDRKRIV
Sequence of Phosphatidylinositol 4,5-bisphosphate 3-kinase catalytic subunit alpha isoform (Homo sapiens) (P42336 whole entry, canonical isoform): as the sequence (P42336 whole entry E545A, canonical isoform) above, with A545E counted along it

`CCOCCn1cc(C(=O)Nc2ccc(-n3nc(-c4cccnc4)cc3C(F)(F)F)cn2)ccc1=O` [BI 1935] was tested, and the residual activity [1] was 100%, the residual activity [2] was 100% and the residual activity [3] was 110%. For the same molecule, the inhibition [4] was -1.74%, the residual activity [5] was 100% and the residual activity [6] was 100%. For the same molecule, the residual activity [7] was 100%, the residual activity [8] was 100% and the inhibition [9] was 48.6%. The residual activity [10] was 97%, the residual activity [11] was 90% and the residual activity [12] was 92%. The residual activity [13] was 88%, the activity at 10 µM [14] was 94.5% (not active) and the residual activity [15] was 77%. It also gave a residual activity [16] of 97%, a residual activity [17] of 69% and a residual activity [18] of 97%. The residual activity [19] was 100%, the residual activity [20] was 86% and the residual activity [21] was 100%. It also gave an inhibition [22] of 3.2%, a residual activity [23] of 96% and a residual activity [24] of 105%. The residual activity [25] was 82%, the residual activity [26] was 95% and the residual activity [27] was 99%. The residual activity [28] was 100%, the residual activity [29] was 76% and the residual activity [30] was 96%. The residual activity [31] was 85%, the residual activity [32] was 104% and the residual activity [33] was 91%. For the same molecule, the residual activity [34] was 83%, the residual activity [35] was 91% and the residual activity [36] was 90%. It also gave a residual activity [37] of 73%, a residual activity [38] of 84% and an inhibition [39] of -4.26%. The residual activity [40] was 100%, the residual activity [41] was 100% and the residual activity [42] was 59%. The residual activity [43] was 87% and the residual activity [44] was 92%.
